# Measured values as given in PubChem BioAssay (NCI).
# Values joined by “and” are separate entries in the source; they are usually repeats but may differ in a detail not shown here. Equal entries are not always repeated.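 How tested: cells in 96-well plates exposed to compound for 48 hours at five concentrations. GI50 marks 50% less growth. TGI: concentration producing complete growth inhibition.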
# Key:
# Assay in all cases: growth of human tumour cells (NCI), 48 h
# [1] = test system: ACHN renal
# [2] = test system: COLO 205 colon
# [3] = test system: KM12 colon
# [4] = test system: MCF7 breast
# [5] = test system: NCI-H23 lung
# [6] = test system: RPMI-8226 leukemia
# [7] = test system: SF-268 CNS
# [8] = test system: SF-295 CNS
# [9] = test system: SK-MEL-5 melanoma
# [10] = test system: SK-OV-3 ovarian
SMILES,GI50 [1],TGI [1],GI50 [2],TGI [2],GI50 [3],TGI [3],GI50 [4],TGI [4],GI50 [5],TGI [5],GI50 [6],TGI [6],GI50 [7],TGI [7],GI50 [8],TGI [8],GI50 [9],TGI [9],GI50 [10],TGI [10]
O=C1/C(=C/c2ccc([N+](=O)[O-])s2)Oc2ccccc21,0.568 µM,1.77 µM,1.26 µM,2.66 µM,0.352 µM,1.28 µM,0.75 µM,5.02 µM,1.31 µM,3.19 µM,0.379 µM,3.57 µM,0.367 µM,1.5 µM,2.07 µM,4.63 µM,1.18 µM,2.62 µM,2.13 µM,5.19 µM
CCCCCCNC(=O)Oc1ccc(/C(=C(\C)c2ccccc2)c2ccc(OCCN3CCCCC3)cc2)cc1,2.85 µM,10.9 µM,1.78 µM,3.57 µM,2.61 µM,7.63 µM,0.0428 µM,3.64 µM,3.06 µM,11.6 µM,2.38 µM,5.57 µM,4.26 µM,20.2 µM,1.74 µM,3.5 µM,1.63 µM,2.99 µM,5.05 µM,19.3 µM
O=C1C(Cl)=C(Nc2cccc(C(F)(F)F)c2)C(=O)N1Cc1ccccc1Cl,4.84 µM,17.1 µM,12 µM,35.8 µM,12.1 µM,33.5 µM,4.21 µM,> 31.8 µM,5.45 µM,23.2 µM,2.17 µM,> 23.5 µM,7.7 µM,26.1 µM,2.39 µM,24.9 µM,2.79 µM,14.7 µM,20.3 µM,39.8 µM
COc1ccc2c(c1OC)-c1c(c3ccc([N+](=O)[O-])cc3c(=O)n1CCCN=[N+]=[N-])C2=O,3.63 µM,22.1 µM,> 100 µM,> 100 µM,> 100 µM,> 100 µM,11.2 µM,> 100 µM,17.5 µM,> 100 µM,5.18 µM,> 100 µM,30.3 µM,> 100 µM,3.11 µM,28.4 µM,12.2 µM,> 100 µM,19.4 µM,> 100 µM
Cc1[nH]nc2c1N=C(c1ccccc1F)c1cc(C#N)ccc1N2,0.326 µM,5.37 µM,0.134 µM,5.34 µM,0.111 µM,6.48 µM,0.119 µM,> 16.8 µM,3.74 µM,14.2 µM,7.4 µM,19.5 µM,0.316 µM,5.8 µM,0.207 µM,15.9 µM,0.0971 µM,9.39 µM,0.889 µM,> 17 µM
CC1CCC2C(C)C3C(CC4C5CC=C6CC(OC7OC(CO)C(O)C(OC8OC(CO)C(O)C(O)C8O)C7OC7OC(C)C(O)C(O)C7O)CCC6(C)C5CCC43C)N2C1 (stereo not drawn),> 2.5 µg/mL,20.3 µM and > 2.5 µg/mL,> 2.5 µg/mL,33 µM and > 2.5 µg/mL,> 2.5 µg/mL,28.3 µM and > 2.5 µg/mL,> 2.5 µg/mL,29.1 µM and > 2.5 µg/mL,> 2.5 µg/mL,29.8 µM and > 2.5 µg/mL,> 2.5 µg/mL,45.9 µM and > 2.5 µg/mL,> 2.5 µg/mL,34.1 µM and > 2.5 µg/mL,> 2.5 µg/mL,22.7 µM and > 2.5 µg/mL,> 2.5 µg/mL,33.3 µM and > 2.5 µg/mL,> 2.5 µg/mL,29.6 µM and > 2.5 µg/mL
C#CCOc1ccc2ncnc(Nc3ccc(NC(=O)CCl)cc3)c2c1,11 µM,23.3 µM,13.8 µM,31.5 µM,8.54 µM,23.7 µM,3.61 µM,15.9 µM,3.85 µM,18.4 µM,3.88 µM,18.1 µM,4.67 µM,22.3 µM,10.1 µM,24.5 µM,3.87 µM,15.5 µM,12.5 µM,38.6 µM
COc1ccc(/C(Cl)=C(\C=O)c2ccc(OC)c(OC)c2)cc1OC,–,> 100 µM,–,> 100 µM,–,> 100 µM,–,> 100 µM,–,> 100 µM,–,> 100 µM,–,> 39.8 µM,–,48.2 µM,–,> 100 µM,–,> 100 µM
O=C1C=CN(C2OC(CO)C(O)C2O)C(=O)C1 (stereo not drawn),–,> 2500 µM,60.2 µM,625 µM and > 2500 µM,22.3 µM and 39.6 µM,625 µM and > 2500 µM,4.63 µM,625 µM and > 2500 µM,> 625 µM and 356 µM,> 2500 µM,23.1 µM,496 µM and > 2500 µM,172 µM and 231 µM,625 µM and > 2500 µM,116 µM and 59.1 µM,625 µM and > 2060 µM,> 625 µM and 325 µM,> 2500 µM,580 µM,625 µM and > 2320 µM
COc1ccc(NC(=O)c2sc3nc(C)c(C(O)c4ccc(OC)cc4)cc3c2N)cc1 (stereo not drawn),2.51 µM,> 50 µM,1.57 µM,31.6 µM,0.76 µM,> 50 µM,0.196 µM,> 50 µM,2.06 µM,> 50 µM,1.62 µM,> 50 µM,2.28 µM,> 50 µM,0.299 µM,9.79 µM,0.569 µM,6.82 µM,1.89 µM,> 50 µM
Cc1ccc2[nH]c(C(=O)NN3C(=O)CSC34CCCC(C)C4)c(-c3ccccc3)c2c1 (stereo not drawn),18.3 µM,36.1 µM,17.5 µM,35.4 µM,16.2 µM,34.3 µM,15.4 µM,38.5 µM,20 µM,36 µM,13.7 µM,31.5 µM,15.6 µM,32.5 µM,17.2 µM,33.5 µM,17.4 µM,34.9 µM,21.5 µM,48.3 µM
CC(=O)NCCCCCCNC(C)=O,–,> 10000 µM,–,> 10000 µM,–,> 10000 µM,–,> 9380 µM,–,> 10000 µM,–,> 10000 µM,–,> 10000 µM,–,> 10000 µM,–,> 10000 µM,–,> 10000 µM
CCCCCC(=O)OCC(=O)O[C@@H]1C[C@]2(C(C)C)O[C@@]1(C)[C@@H]1CC[C@@H](C)[C@H]1[C@@H]2OC(=O)/C=C/c1ccccc1,0.0387 µM,10.1 µM,> 61.3 µM,> 95.9 µM,> 78.5 µM,> 100 µM,> 32.9 µM,> 100 µM,> 52.8 µM,> 75.7 µM,43.3 µM,> 100 µM,4.08 µM,> 84.7 µM,> 68.2 µM,> 100 µM,42.5 µM,> 77.4 µM,> 85.2 µM,> 100 µM
O=C(NCCN1CCOCC1)Nc1ccc(-c2cc3c(Nc4ccc(Oc5cccc(C(F)(F)F)c5)c(Cl)c4)ncnc3s2)cc1,1.74 µM,6.06 µM,1.25 µM,2.95 µM,1.02 µM,2.12 µM,1.11 µM,3.27 µM,1.51 µM,5.76 µM,1.4 µM,3.54 µM,1.76 µM,7.51 µM,0.936 µM,2 µM,0.916 µM,1.71 µM,1.88 µM,7.49 µM
CCCC(=O)NC(c1ccc2c(c1)OCO2)c1ccc2cccnc2c1O (stereo not drawn),0.466 µM,> 100 µM,2.73 µM,> 100 µM,2.09 µM,> 100 µM,0.748 µM,> 100 µM,1.78 µM,> 100 µM,1.03 µM,27.8 µM,1.46 µM,> 100 µM,0.728 µM,42.6 µM,1.74 µM,3.9 µM,1.89 µM,29.7 µM
O=C(O)C(Br)C(Br)c1ccccc1[N+](=O)[O-] (stereo not drawn),–,> 100 µM,–,> 100 µM,–,> 100 µM,–,> 100 µM,–,> 100 µM,–,> 100 µM,–,> 100 µM,–,> 100 µM,–,> 100 µM,–,> 100 µM
O=C(NCCCNC(=O)OCc1ccc2c(Br)cc(Br)c(O)c2n1)OCc1ccc2c(Br)cc(Br)c(O)c2n1,> 100 µM,> 100 µM,> 100 µM,> 100 µM,> 100 µM,> 100 µM,> 100 µM,> 100 µM,> 100 µM,> 100 µM,> 100 µM,> 100 µM,> 100 µM,> 100 µM,> 100 µM,> 100 µM,> 100 µM,> 100 µM,> 100 µM,> 100 µM
CCCCSCc1nc2nc(Cl)c(Cl)nc2[nH]1,–,71.5 µM,–,37 µM,–,> 100 µM,–,68 µM,–,44.6 µM,–,38.2 µM,–,> 100 µM,–,45.6 µM,–,28.8 µM,–,57.2 µM
COc1cccc(Cn2cc3c(c2)-c2oncc2CC3)c1,0.876 µM,> 100 µM,0.313 µM,1.05 µM,0.379 µM,3.02 µM,0.378 µM,> 100 µM,0.471 µM,> 80.7 µM,0.365 µM,–,0.918 µM,> 100 µM,0.245 µM,1.04 µM,0.44 µM,3.09 µM,0.361 µM,6.03 µM
O=C(Nc1cccc2cccnc12)c1ccc(N2C(=O)[C@@H]3[C@H](C2=O)[C@@H]2C=C[C@H]3C2)cc1,36.4 µM,> 100 µM,37.6 µM,> 100 µM,30.9 µM,> 100 µM,25.1 µM,> 100 µM,23.5 µM,> 100 µM,23.2 µM,> 88.2 µM,35.7 µM,> 100 µM,24.9 µM,> 86.9 µM,13.4 µM,29.6 µM,> 62.4 µM,> 100 µM
O=C(O)c1ccc(S(=O)(=O)N=Nc2c(O)[nH]c3ccccc23)cc1,–,> 100 µM,–,> 100 µM,–,> 100 µM,–,> 100 µM,–,> 100 µM,–,> 100 µM,–,> 100 µM,–,> 100 µM,–,> 100 µM,–,> 100 µM
BrC(Br)(Br)c1cnc2ccccc2n1,1.41 µM,2.84 µM,0.735 µM,2.13 µM,2.37 µM,7.7 µM,1.53 µM,5.42 µM,3.6 µM,17.1 µM,2.18 µM,6.02 µM,4 µM,17.5 µM,3.75 µM,15.4 µM,2.32 µM,7.54 µM,3.38 µM,13.6 µM
COc1cccc2c1cc([N+](=O)[O-])c1c(C(=O)O)cc3c(c12)OCO3,35.2 µM,> 100 µM,1.12 µM,2.8 µM and 2.97 µM,24.5 µM,> 87.2 µM,30.7 µM,> 100 µM,29.6 µM,> 100 µM,37.1 µM,> 100 µM,29 µM,> 95.2 µM,17.4 µM,> 100 µM,22.3 µM,72.2 µM and > 100 µM,38.4 µM,> 100 µM
O=C(Nc1cccc(C(F)(F)F)c1)c1cccc(NC2=C(Cl)C(=O)N(Cc3ccccc3)C2=O)c1,15.8 µM,85.2 µM,32.3 µM,> 100 µM,44.8 µM,> 100 µM,3.28 µM,> 100 µM,25.4 µM,64.8 µM,1.89 µM,6.51 µM,5.96 µM,40.9 µM,20.2 µM,> 100 µM,18 µM,38.2 µM,79.1 µM,> 100 µM
CCCCCCCCCCCCOC1C(C(COC2OC(C(O)CN3CCCCC3)C3OC(C)(C)OC23)NC(=O)Nc2ccccc2)OC2OC(C)(C)OC21 (stereo not drawn),17.3 µM,34.5 µM,3.86 µM,16.8 µM,7.06 µM,18.7 µM,3.16 µM,10.6 µM,17.9 µM,37.1 µM,5.32 µM,15.3 µM,10.3 µM,25.4 µM,15.3 µM,31.7 µM,8.66 µM,21.7 µM,20.4 µM,44.1 µM
